One assay concerns HT-29 cells. Description: Protection against programmed necrosis of HT-29 cells (TNF α/Smac mimetic/Z-VAD-FMK, CCK8). It is filed as cell-based. The following applies: Homo sapiens, TNF α/Smac mimetic/Z-VAD-FMK induced 24 h, CCK8, read-out: HT-29 (EC50). Here is the method:
In vitro protection against programmed necrosis of HT-29 cells was conducted by ourselves.
DMEM medium was purchased from Gibco Inc., penicillin and streptomycin were purchased from HyClone Inc., TNF α was purchased from PeproTech Inc., Smac mimetic and Z-VAD-FMK were purchased from Selleck Inc., CCK8 was purchased from Medchem Express Inc.
HT-29 cells (colon cancer cells) were cultured in DMEM+10% FBS+Penicillin/Streptomycin medium. During the experiments, HT-29 cells in logarithmic growth phase were harvested, seeded in a 96-well plate at specific numbers per well (typically 8×10^3 cells/well of adherent cells) and cultured overnight in a 37° C., 5% CO2 cell culture incubator. The next day, the compounds to be tested were diluted with culture medium to the corresponding concentrations and added into the corresponding wells of a 96-well plate, with 3 replicate wells for each sample, and a Vehicle control group and a blank Control group containing only culture medium were set at the same time. […] The absorbance was measured at 495 nm wavelength using a microplate reader, and the protection rate of the drug on the cells necrosis was calculated according to the following formula:
Protection rate of cell necrosis=[(X−C0)/(C−C0)]×100%
Wherein, C, C0, and X represent the mean absorbance values of the Vehicle control group, Blank control group and Drug treatment group, respectively.

A further assay has as its target RIPK1 (Homo sapiens (Human), UniProt Q13546). Put plainly: In vitro kinase assay (Eurofins Kinase Profiler), IC50. The following applies: 0.001-10 μM, read-out: RIPK 1 (IC50). In kind it is biochemical.

A value given as a limit tells only on which side of the number the result lay.

Chain of RIPK1 (Q13546 whole entry): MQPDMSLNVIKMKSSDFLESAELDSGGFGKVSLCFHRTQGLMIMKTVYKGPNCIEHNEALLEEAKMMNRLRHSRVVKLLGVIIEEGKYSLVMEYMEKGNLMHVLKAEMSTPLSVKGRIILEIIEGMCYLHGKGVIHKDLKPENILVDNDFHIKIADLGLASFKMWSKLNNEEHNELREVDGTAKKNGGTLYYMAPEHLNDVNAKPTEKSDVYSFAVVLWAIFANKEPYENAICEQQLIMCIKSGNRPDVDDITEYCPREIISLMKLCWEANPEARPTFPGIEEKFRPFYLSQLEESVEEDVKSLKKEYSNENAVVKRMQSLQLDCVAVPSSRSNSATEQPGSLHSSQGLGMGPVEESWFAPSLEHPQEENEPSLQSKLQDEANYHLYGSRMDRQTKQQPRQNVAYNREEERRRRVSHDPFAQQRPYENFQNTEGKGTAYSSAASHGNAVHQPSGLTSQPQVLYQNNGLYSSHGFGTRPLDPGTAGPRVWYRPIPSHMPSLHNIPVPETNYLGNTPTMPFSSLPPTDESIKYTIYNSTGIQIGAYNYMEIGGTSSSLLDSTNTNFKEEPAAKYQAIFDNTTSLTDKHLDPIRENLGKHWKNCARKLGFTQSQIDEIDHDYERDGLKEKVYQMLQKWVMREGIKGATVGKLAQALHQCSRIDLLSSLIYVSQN
Description for RIPK1: In vitro kinase assays were conducted using Kinase Profiler services provided by Eurofins. The experimental method was as follows: the small molecule compound to be tested (0.001-10 μM), the protein kinase to be tested were incubated with a buffer containing substrate, 10 mM magnesium acetate, and [γ-^33P-ATP], the reaction was started by adding Mg\TPmix, after incubation for a period of time at room temperature, a 3% phosphate solution was added to the buffer to stop the reaction. Subsequently, 10 μL of the reaction mixture was quantitatively pipetted onto P30 filter paper, which was washed three times with 75 mM phosphate solution and then once with methanol. The P30 filter paper was air-dried and scintillation fluid was added for scintillation counting.

For the compound `O=C(NCc1ccc(N2CCOCC2)cc1)c1c[nH]c2ccc(-c3ccn4nc(NC(=O)C5CC5)nc4c3)cc12` [Compound 97], the EC50 with HT-29 cells is at least 1000 nM. Further, at RIPK1, the IC50 was at least 1000 nM.
In the case of `Cn1cc(C(=O)NCc2ccc(N3CCOCC3)cc2)c2cc(-c3ccn4nc(NC(=O)C5CC5)nc4c3)ccc21` [Compound 98], in the assay with HT-29 cells, the half-maximal effective concentration (EC50) is at least 1000 nM. Also, the IC50 at RIPK1 is at least 1000 nM.
As to `O=C(NCc1ccc(N2CCOCC2)cc1)c1c[nH]c2ccc(-c3ccc4nc(NC(=O)C5CC5)sc4n3)cc12` [Compound 99], the EC50 in the assay on HT-29 cells is at least 1000 nM. Besides, at RIPK1, the concentration for half-maximal inhibition (IC50) is at least 1000 nM.
As for `Cn1cc(C(=O)NCc2ccc(N3CCOCC3)cc2)c2cc(-c3ccc4nc(NC(=O)C5CC5)sc4n3)ccc21` [Compound 100], in the assay with HT-29 cells, the EC50 was at least 1000 nM. Besides, the IC50 on RIPK1 is at least 1000 nM.
On to `Cc1ccc(CCNC(=O)c2n[nH]c3ccc(-c4ccc5c(N)ncnn45)cc23)cc1` [Compound 101], for which, in the assay with HT-29 cells, the EC50 is 100 to 1000 nM. Moreover, the IC50 at RIPK1 fell in the range of 10 to 100 nM.
With `Nc1ncnn2c(-c3ccc4[nH]nc(C(=O)NCCc5cccc(F)c5)c4c3)ccc12` [Compound 102], the EC50 in the assay on HT-29 cells lay within 100 to 1000 nM. In addition, the IC50 on RIPK1 was 100 to 1000 nM.
Take `Nc1ncnn2c(-c3ccc4[nH]nc(C(=O)NCCc5ccc(F)cc5)c4c3)ccc12` [Compound 103]: the 50% effective concentration (EC50) in the assay with HT-29 cells fell in the range of 100 to 1000 nM. Further, the IC50 at RIPK1 was 10 to 100 nM.
As to `C[C@H](NC(=O)c1cn(C)c2ccc(-c3ccc4c(NC(=O)C5CC5)n[nH]c4c3)cc12)c1cccc(F)c1` [Compound 104], the EC50 with HT-29 cells is below 1 nM. Further, the half-maximal inhibitory concentration (IC50) on RIPK1 lay within 1 to 10 nM.
As for `CC(C)C(=O)Nc1nc2cc(-c3ccc4c(c3)c(C(=O)NC(C)c3ccccc3)cn4C)ccn2n1` (stereo not shown) [Compound 105], the EC50 in the assay on HT-29 cells was 1 to 10 nM. For the same compound, the IC50 at RIPK1 was 10 to 100 nM.
The matching figures for `CC(C)C(=O)Nc1nc2cc(-c3ccc4c(c3)c(C(=O)N[C@@H](C)c3cccc(F)c3)cn4C)ccn2n1` [Compound 106]: below 1 nM and 1 to 10 nM.
On to `CC(C)C(=O)Nc1nc2ccc(-c3ccc4c(c3)c(C(=O)N[C@@H](C)c3cccc(F)c3)cn4C)cn2n1` [Compound 107], for which, in the assay on HT-29 cells, the concentration giving a half-maximal response (EC50) fell in the range of 1 to 10 nM. The IC50 at RIPK1 was 10 to 100 nM.
Turning to `C[C@H](NC(=O)c1cn(C)c2ccc(-c3ccn4nc(NC(=O)C5CC5)cc4n3)cc12)c1cccc(F)c1` [Compound 108], the EC50 in the assay with HT-29 cells lay within 1 to 10 nM. In addition, at RIPK1, the IC50 fell in the range of 1 to 10 nM.
Take `C[C@H](NC(=O)c1cn(C)c2ccc(-c3ccc4nc(NC(=O)C5CC5)cn4n3)cc12)c1cccc(F)c1` [Compound 109]: the EC50 in the assay with HT-29 cells was below 1 nM. In addition, the IC50 on RIPK1 was 1 to 10 nM.
As for `CCn1cc(C(=O)N[C@@H](C)c2cccc(F)c2)c2cc(-c3ccc4c(NC(=O)C5CC5)n[nH]c4c3)ccc21` [Compound 111], the EC50 in the assay on HT-29 cells is below 1 nM. At RIPK1, the IC50 fell in the range of 1 to 10 nM.
For `CC(C)n1cc(C(=O)N[C@@H](C)c2cccc(F)c2)c2cc(-c3ccc4c(NC(=O)C5CC5)n[nH]c4c3)ccc21` [Compound 112], the EC50 in the assay on HT-29 cells fell in the range of 1 to 10 nM. In addition, at RIPK1, the IC50 is 10 to 100 nM.
`CCCn1cc(C(=O)N[C@@H](C)c2cccc(F)c2)c2cc(-c3ccc4c(NC(=O)C5CC5)n[nH]c4c3)ccc21` [Compound 113]: in the assay on HT-29 cells, the EC50 was 1 to 10 nM. The half-maximal inhibitory concentration (IC50) at RIPK1 was in the range of 1 to 10 nM.
Turning to `CC(C)Cn1cc(C(=O)N[C@@H](C)c2cccc(F)c2)c2cc(-c3ccc4c(NC(=O)C5CC5)n[nH]c4c3)ccc21` [Compound 115], the EC50 in the assay on HT-29 cells fell in the range of 10 to 100 nM. Also, the IC50 on RIPK1 is 1 to 10 nM.
In the same order, the values of `COCCn1cc(C(=O)N[C@@H](C)c2cccc(F)c2)c2cc(-c3ccc4c(NC(=O)C5CC5)n[nH]c4c3)ccc21` [Compound 116] are 10 to 100 nM and 1 to 10 nM.
For the compound `C[C@H](NC(=O)c1cn(C)c2ccc(-c3ccc4c(NC(=O)C5CC5)c[nH]c4c3)cc12)c1cccc(F)c1` [Compound 117], the EC50 in the assay with HT-29 cells was in the range of 10 to 100 nM. In addition, the 50% inhibitory concentration (IC50) at RIPK1 fell in the range of 10 to 100 nM.
As to `C[C@H](NC(=O)c1cn(C)c2ccc(-c3ccc4c(C(=O)NC5CC5)c[nH]c4c3)cc12)c1cccc(F)c1` [Compound 118], the EC50 in the assay on HT-29 cells is 1 to 10 nM. The IC50 on RIPK1 fell in the range of 10 to 100 nM.

For the origin of these results see patent US20230365546A1, “5-SUBSTITUTED INDOLE 3-AMIDE DERIVATIVES, PREPARATION METHOD AND USE THEREOF” (ORIGIANT PHARMACEUTICAL CO., LTD, priority 2020, published 2023).
